Measurements as given in US8772500B2, “TRPV3 modulators” (AbbVie Inc., priority 2011, dated 2014).

Columns and labels:
[1] = In vitro human microsomal stability assay; format: in vitro ADME; details: human, 0.5 h, 0.5 μM, pH 7.4
How it was run: (§1)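 Metabolic stability was measured in liver microsomes from Sprague-Dawley rat or from human. Incubations ran at 37 °C with NADPH as cofactor, and NADPH was also added to the time-zero samples.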

[2] = In vitro rat microsomal stability assay; format: in vitro ADME, rat (Sprague-Dawley); details: Sprague-Dawley, rat, 0.5 h, 0.5 μM, pH 7.4
How it was run: as §1

human TRPV3 = target: T1, human TRPV3 (Homo sapiens, UniProt Q8NET8); assay: In vitro antagonism of recombinant human TRPV3 activation (FLIPR Tetra calcium assay, 2-APB as agonist); format: cell-based; details: HEK293 cells stably expressing human TRPV3; 2-APB 80 μM; range class; read-out: IC50 (reported range)
T1 construct: expressed in transfected cells
T1 sequence (Q8NET8 1-790): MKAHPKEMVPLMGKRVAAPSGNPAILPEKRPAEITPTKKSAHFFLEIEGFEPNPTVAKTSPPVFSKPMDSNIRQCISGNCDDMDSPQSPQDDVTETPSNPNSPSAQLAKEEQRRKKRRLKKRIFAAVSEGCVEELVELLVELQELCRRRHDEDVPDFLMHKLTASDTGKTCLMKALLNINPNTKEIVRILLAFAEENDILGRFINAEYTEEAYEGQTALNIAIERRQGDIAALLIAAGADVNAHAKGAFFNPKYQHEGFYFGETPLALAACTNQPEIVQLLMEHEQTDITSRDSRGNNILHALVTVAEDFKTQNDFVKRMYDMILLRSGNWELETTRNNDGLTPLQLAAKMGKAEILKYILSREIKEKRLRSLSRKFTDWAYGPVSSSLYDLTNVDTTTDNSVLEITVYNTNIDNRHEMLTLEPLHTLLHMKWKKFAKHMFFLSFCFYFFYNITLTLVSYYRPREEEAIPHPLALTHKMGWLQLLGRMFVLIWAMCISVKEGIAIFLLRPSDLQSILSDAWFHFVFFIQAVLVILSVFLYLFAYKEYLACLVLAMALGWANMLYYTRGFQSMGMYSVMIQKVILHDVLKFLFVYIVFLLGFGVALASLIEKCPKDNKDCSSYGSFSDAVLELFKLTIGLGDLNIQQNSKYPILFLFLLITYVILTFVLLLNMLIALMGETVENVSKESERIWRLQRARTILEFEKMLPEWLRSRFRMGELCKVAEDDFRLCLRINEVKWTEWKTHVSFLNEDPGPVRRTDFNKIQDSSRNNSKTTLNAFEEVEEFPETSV
How it was run: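 Readout is FLIPR fluorescence, max minus min as percent of uninhibited 2-APB response, giving IC50 (usually mean of ≥2 runs). Stable human TRPV3 HEK293 cells, Calcium-4 dye-loaded, got test compound then, three minutes later, 80 μM 2-APB (EC80); run length 10 min.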

Row | Structure (SMILES) | HUMAN MICROSOMAL STABILITY (% REMAINING AFTER 30 MINUTES) [1] [%] | RAT MICROSOMAL STABILITY (% REMAINING AFTER 30 MINUTES) [2] [%] | IC50 (human TRPV3) [nM]
1 | OC(c1ccccn1)C1(c2ccccc2C(F)(F)F)CCC1 (stereo not drawn) [Example 5, pyridin-2-yl{1-[2-(trifluoromethyl)phenyl]cyclobutyl}methanol] | 0.27 | 0.06 | 5100 to 20000
2 | OC(c1ccccn1)C1(c2cccc(F)c2)CCC1 (stereo not drawn) [Example 2, [1-(3-fluorophenyl)cyclobutyl](pyridin-2-yl)methanol] | 17 | 0.64 | 50 to 500
3 | OC1CC(c2ccc(Cl)c(Cl)c2)(C(O)c2ccccn2)C1 (single isomer, unassigned) [Example 119] | >85 | 69 | 501 to 1000
4 | O[C@H](c1ccccn1)C1(c2ccc(C(F)(F)F)c(F)c2)CCC1 [Example 29, (S)-{1-[3-fluoro-4-(trifluoromethyl)phenyl]cyclobutyl}(pyridin-2-yl)-methanol] | 5.3 | 45 | 1100 to 5000
5 | O[C@H](c1ccccn1)C1(c2cccc(C(F)(F)F)n2)CCC1 [Example 238, (S)-pyridin-2-yl{1-[6-(trifluoromethyl)pyridin-2-yl]cyclobutyl}methanol] | 7.1 | 21 | 1100 to 5000
6 | CC1(O)CC(c2cccc(C(F)(F)F)c2)(C(O)c2ccccn2)C1 [Example 244, trans-3-[(S)-hydroxy(pyridin-2-yl)methyl]-1-methyl-3-[3-(trifluoromethyl)-phenyl]cyclobutanol] | 80 | 77 | 1100 to 5000
7 | OC(c1ccccn1)C1(c2nc3ccc(F)cc3s2)CCC1 (stereo not drawn) [Example 300, [1-(6-fluoro-1,3-benzothiazol-2-yl)cyclobutyl](pyridin-2-yl)methanol] | 35 | 0.020 | 1100 to 5000
8 | OC(c1ccccn1)C1(c2ccccc2OC(F)(F)F)CCC1 (stereo not drawn) [Example 10, pyridin-2-yl{1-[2-(trifluoromethoxy)phenyl]cyclobutyl}methanol] | 0.42 | 0.62 | 1100 to 5000
9 | Cc1cccc(C2(C(O)c3ccccn3)CCC2)c1 (stereo not drawn) [Example 8, [1-(3-methylphenyl)cyclobutyl](pyridin-2-yl)methanol] | 0.13 | 0.73 | 50 to 500
10 | NC1CCCC1C(O)C1(c2ccc(OC(F)(F)F)cc2)CCC1 (stereo not drawn) [Example 206, (2-aminocyclopentyl){1-[4-(trifluoromethoxy)phenyl]cyclobutyl}methanol] | 83 | 62 | 1100 to 5000
11 | OC(c1ccccn1)C1(C(c2ccccc2)C(F)(F)F)CCC1 (stereo not drawn) [Example 58, pyridin-2-yl[1-(2,2,2-trifluoro-1-phenylethyl)cyclobutyl]methanol] | 36 | 33 | 1100 to 5000
12 | OC(c1ccccn1)C1(c2nc3ccccc3s2)CCC1 (stereo not drawn) [Example 266, [1-(1,3-benzothiazol-2-yl)cyclobutyl](pyridin-2-yl)methanol] | 46 | 0.14 | 1100 to 5000
13 | CON=C1CC(c2ccc(OC(F)(F)F)cc2)([C@H](O)c2ccccn2)C1 (stereo partly drawn) [Example 249, (S)-{3-(methoxyimino)-1-[4-(trifluoromethoxy)phenyl]cyclobutyl}(pyridin-2-yl)methanol] | 61 | 3.2 | 1100 to 5000
14 | N[C@H]1CCC[C@H]1[C@@H](O)C1(c2ccccc2F)CCC1 [Example 226, (R)-[(1R,2S)-2-aminocyclopentyl][1-(2-fluorophenyl)cyclobutyl]methanol] | >85 | <0.01 | 501 to 1000
15 | CC(c1ccc(Cl)cc1)C1(C(O)c2ccccn2)CCC1 (stereo not drawn) [Example 49, {1-[1-(4-chlorophenyl)ethyl]cyclobutyl}(pyridin-2-yl)methanol] | 15 | 0.13 | 1100 to 5000
16 | O[C@H](c1ccccn1)[C@]1(c2ccc(Cl)c(Cl)c2)CCO1 [Example 136, (R)-[(2R)-2-(3,4-dichlorophenyl)oxetan-2-yl](pyridin-2-yl)methanol] | 24 | 9.5 | 50 to 500
17 | OC(c1ccccn1)C1(c2cccc(C(F)(F)F)c2)CCCO1 (stereo not drawn) [Example 107, (syn)-pyridin-2-yl{2-[3-(trifluoromethyl)phenyl]tetrahydrofuran-2-yl}-methanol] | 31 | 0.23 | 1100 to 5000
18 | OC1CC(c2ccc(Cl)c(Cl)c2)(C(O)c2ncccn2)C1 [Example 312, (trans)-3-(3,4-dichlorophenyl)-3-((S)-hydroxy(pyrimidin-2-yl)methyl)-cyclobutanol] | >85 | >85 | 1100 to 5000
19 | CN(C)N=C1CC(c2ccc(OC(F)(F)F)cc2)([C@H](O)c2ccccn2)C1 (stereo partly drawn) [Example 267, (S)-{3-(dimethylhydrazinylidene)-1-[4-(trifluoromethoxy)phenyl]-cyclobutyl}(pyridin-2-yl)methanol] | 64 | 10 | 1100 to 5000
20 | OC(c1ccccn1)C1(c2ccc(Oc3ccccc3)cc2)CCC1 (stereo not drawn) [Example 24, [1-(4-phenoxyphenyl)cyclobutyl](pyridin-2-yl)methanol] | 20 | 17 | 1100 to 5000
21 | NC1CCCC1C(O)C1(c2cccc(C(F)(F)F)c2)CCC1 (stereo not drawn) [Example 204, (2-aminocyclopentyl){1-[3-(trifluoromethyl)phenyl]cyclobutyl}methanol] | >85 | >85 | 1100 to 5000
